Experimental data as given in ChEMBL document CHEMBL6134890, “Terminally Symmetric β-Turn Peptides for Multidrug-Resistant Bacterial Infections” (J Med Chem, 2025).
≈ marks a conversion by molar mass, not a printed value. Bridge positions count the residues as written; N and C are the ends. Square brackets hold non-standard residues; d marks the D form. Peptide text beside a SMILES is read from it. * marks the point of attachment. X1 = CC[C@H](C)CCCCC(=O)*; Dab = NCC[C@H](N)C(=O)O

Columns and labels:
[1] = Hemolytic activity in human Red blood cell assessed as hemolysis incubated for 1 hrs by microplate reader based analysis; format: toxicity; conditions: erythrocyte
[2] = tested on: Klebsiella pneumoniae; assay: Antimicrobial activity against multi-drug resistant Klebsiella pneumoniae assessed as reduction in bacterial growth by broth dilution method; format: functional
[3] = tested on: Enterococcus faecalis; assay: Antimicrobial activity against multi-drug resistant Enterococcus faecalis assessed as reduction in bacterial growth by broth dilution method; format: functional
[4] = tested on: Staphylococcus epidermidis; assay: Antimicrobial activity against multi-drug resistant Staphylococcus epidermidis assessed as reduction in bacterial growth by broth dilution method; format: functional
[5] = tested on: Escherichia coli; assay: Antimicrobial activity against Escherichia coli ATCC 25922 assessed as reduction in bacterial growth by broth dilution method; format: functional
[6] = tested on: Escherichia coli; assay: Antimicrobial activity against multi-drug resistant Escherichia coli assessed as reduction in bacterial growth by broth dilution method; format: functional
[7] = tested on: Staphylococcus aureus; assay: Antimicrobial activity against Staphylococcus aureus ATCC 25923 assessed as reduction in bacterial growth by broth dilution method; format: functional
[8] = tested on: Staphylococcus aureus; assay: Antimicrobial activity against multi-drug resistant Staphylococcus aureus assessed as reduction in bacterial growth by broth dilution method; format: functional
[9] = tested on: Acinetobacter baumannii; assay: Antimicrobial activity against multi-drug resistant Acinetobacter baumannii assessed as reduction in bacterial growth by broth dilution method; format: functional

Row | SMILES | HC10 [1] [µM] | MIC [2] [µM] | MIC [3] [µM] | MIC [4] [µM] | MIC [5] [µM] | MIC [6] [µM] | MIC [7] [µM] | MIC [8] [µM] | MIC [9] [µM]
1 | CC[C@H](C)[C@H](N)C(=O)N[C@@H](CCCCN)C(=O)N[C@H](C(=O)N[C@@H](CCCCN)C(=O)N[C@@H](Cc1ccccc1)C(=O)N1CCC[C@H]1C(=O)N[C@@H](Cc1c[nH]c2ccccc12)C(=O)N[C@@H](Cc1c[nH]c2ccccc12)C(=O)N[C@@H](Cc1c[nH]c2ccccc12)C(=O)N1CCC[C@H]1C(=O)N[C@@H](Cc1ccccc1)C(=O)N[C@@H](CCCCN)C(=O)N[C@H](C(=O)N[C@@H](CCCCN)C(=O)N[C@H](C(N)=O)[C@@H](C)CC)[C@@H](C)CC)[C@@H](C)CC (H-IKIKFPWWWPFKIKI-NH2) | 9.48 | 256 (≈ 520 µg/mL) | 16 (≈ 32.5 µg/mL) | 16 (≈ 32.5 µg/mL) | 16 (≈ 32.5 µg/mL) | 32 (≈ 64.9 µg/mL) | 16 (≈ 32.5 µg/mL) | 16 (≈ 32.5 µg/mL) | 16 (≈ 32.5 µg/mL)
2 | CC[C@H](C)[C@H](N)C(=O)N[C@@H](CCCCN)C(=O)N[C@H](C(=O)N[C@@H](CCCCN)C(=O)N[C@H](C(=O)N[C@@H](CCCCN)C(=O)N[C@@H](Cc1ccccc1)C(=O)N1CCC[C@H]1C(=O)N[C@@H](Cc1c[nH]c2ccccc12)C(=O)N[C@@H](Cc1c[nH]c2ccccc12)C(=O)N[C@@H](Cc1c[nH]c2ccccc12)C(=O)N1CCC[C@H]1C(=O)N[C@@H](Cc1ccccc1)C(=O)N[C@@H](CCCCN)C(=O)N[C@H](C(=O)N[C@@H](CCCCN)C(=O)N[C@H](C(=O)N[C@@H](CCCCN)C(=O)N[C@H](C(N)=O)[C@@H](C)CC)[C@@H](C)CC)[C@@H](C)CC)[C@@H](C)CC)[C@@H](C)CC (H-IKIKIKFPWWWPFKIKIKI-NH2) | 6.56 | 64 (≈ 161 µg/mL) | 128 (≈ 322 µg/mL) | 128 (≈ 322 µg/mL) | 128 (≈ 322 µg/mL) | 128 (≈ 322 µg/mL) | 128 (≈ 322 µg/mL) | 64 (≈ 161 µg/mL) | 128 (≈ 322 µg/mL)
3 | CC[C@H](C)[C@H](N)C(=O)N[C@@H](CCCCN)C(=O)N[C@H](C(=O)N[C@@H](CCCCN)C(=O)N[C@H](C(=O)N[C@@H](CCCCN)C(=O)N1CCC[C@H]1C(=O)N[C@@H](Cc1c[nH]c2ccccc12)C(=O)N[C@@H](Cc1c[nH]c2ccccc12)C(=O)N[C@@H](Cc1c[nH]c2ccccc12)C(=O)N1CCC[C@H]1C(=O)N[C@@H](CCCCN)C(=O)N[C@H](C(=O)N[C@@H](CCCCN)C(=O)N[C@H](C(=O)N[C@@H](CCCCN)C(=O)N[C@H](C(N)=O)[C@@H](C)CC)[C@@H](C)CC)[C@@H](C)CC)[C@@H](C)CC)[C@@H](C)CC (H-IKIKIKPWWWPKIKIKI-NH2) | 116.64 | 64 (≈ 142 µg/mL) | 2 (≈ 4.44 µg/mL) | 2 (≈ 4.44 µg/mL) | 64 (≈ 142 µg/mL) | 64 (≈ 142 µg/mL) | 4 (≈ 8.87 µg/mL) | 8 (≈ 17.7 µg/mL) | 64 (≈ 142 µg/mL)
4 | CC[C@H](C)[C@H](N)C(=O)N[C@@H](CCCCN)C(=O)N[C@H](C(=O)N[C@@H](CCCCN)C(=O)N1CCC[C@H]1C(=O)N[C@@H](Cc1c[nH]c2ccccc12)C(=O)N[C@@H](Cc1c[nH]c2ccccc12)C(=O)N[C@@H](Cc1c[nH]c2ccccc12)C(=O)N1CCC[C@H]1C(=O)N[C@@H](CCCCN)C(=O)N[C@H](C(=O)N[C@@H](CCCCN)C(=O)N[C@H](C(N)=O)[C@@H](C)CC)[C@@H](C)CC)[C@@H](C)CC (H-IKIKPWWWPKIKI-NH2) | > 256 | 64 (≈ 111 µg/mL) | 16 (≈ 27.8 µg/mL) | 16 (≈ 27.8 µg/mL) | 16 (≈ 27.8 µg/mL) | 16 (≈ 27.8 µg/mL) | 8 (≈ 13.9 µg/mL) | 8 (≈ 13.9 µg/mL) | 16 (≈ 27.8 µg/mL)
5 | NCCCC[C@H](NC(=O)[C@H](Cc1ccccc1)NC(=O)[C@H](CCCCN)NC(=O)[C@H](Cc1ccccc1)NC(=O)[C@H](CCCCN)NC(=O)[C@H](Cc1ccccc1)NC(=O)[C@@H]1CCCN1C(=O)[C@H](Cc1c[nH]c2ccccc12)NC(=O)[C@H](Cc1c[nH]c2ccccc12)NC(=O)[C@H](Cc1c[nH]c2ccccc12)NC(=O)[C@@H]1CCCN1C(=O)[C@H](Cc1ccccc1)NC(=O)[C@H](CCCCN)NC(=O)[C@H](Cc1ccccc1)NC(=O)[C@H](CCCCN)NC(=O)[C@H](Cc1ccccc1)NC(=O)[C@@H](N)CCCCN)C(N)=O (H-KFKFKFPWWWPFKFKFK-NH2) | 6.39 | 16 (≈ 38.8 µg/mL) | 4 (≈ 9.69 µg/mL) | 4 (≈ 9.69 µg/mL) | 8 (≈ 19.4 µg/mL) | 8 (≈ 19.4 µg/mL) | 8 (≈ 19.4 µg/mL) | 8 (≈ 19.4 µg/mL) | 4 (≈ 9.69 µg/mL)
6 | CC[C@H](C)[C@H](NC(=O)[C@H](CCCCN)NC(=O)[C@@H](NC(=O)[C@H](Cc1ccccc1)NC(=O)[C@@H]1CCCN1C(=O)[C@H](Cc1c[nH]c2ccccc12)NC(=O)[C@H](Cc1c[nH]c2ccccc12)NC(=O)[C@H](Cc1c[nH]c2ccccc12)NC(=O)[C@@H]1CCCN1C(=O)[C@H](Cc1ccccc1)NC(=O)[C@@H](NC(=O)[C@H](CCCCN)NC(=O)[C@@H](NC(=O)[C@@H](N)CCCCN)[C@@H](C)CC)[C@@H](C)CC)[C@@H](C)CC)C(=O)N[C@@H](CCCCN)C(N)=O (H-KIKIFPWWWPFIKIK-NH2) | 4.32 | 256 (≈ 520 µg/mL) | 16 (≈ 32.5 µg/mL) | 8 (≈ 16.2 µg/mL) | 8 (≈ 16.2 µg/mL) | 16 (≈ 32.5 µg/mL) | 8 (≈ 16.2 µg/mL) | 8 (≈ 16.2 µg/mL) | 8 (≈ 16.2 µg/mL)
7 | CC[C@H](C)[C@H](NC(=O)[C@H](CCCCN)NC(=O)[C@@H](NC(=O)[C@H](CCCCN)NC(=O)[C@H](Cc1ccccc1)NC(=O)[C@@H]1CCCN1C(=O)[C@H](Cc1c[nH]c2ccccc12)NC(=O)[C@H](Cc1c[nH]c2ccccc12)NC(=O)[C@H](Cc1c[nH]c2ccccc12)NC(=O)[C@@H]1CCCN1C(=O)[C@H](Cc1ccccc1)NC(=O)[C@H](CCCCN)NC(=O)[C@@H](NC(=O)[C@H](CCCCN)NC(=O)[C@@H](NC(=O)[C@@H](N)CCCCN)[C@@H](C)CC)[C@@H](C)CC)[C@@H](C)CC)C(=O)N[C@@H](CCCCN)C(N)=O (H-KIKIKFPWWWPFKIKIK-NH2) | 29.44 | 32 (≈ 73.2 µg/mL) | 4 (≈ 9.14 µg/mL) | 8 (≈ 18.3 µg/mL) | 16 (≈ 36.6 µg/mL) | 8 (≈ 18.3 µg/mL) | 4 (≈ 9.14 µg/mL) | 4 (≈ 9.14 µg/mL) | 8 (≈ 18.3 µg/mL)
8 | CC[C@H](C)[C@H](NC(=O)[C@H](CCCCN)NC(=O)[C@@H](NC(=O)[C@H](CCCCN)NC(=O)[C@@H](NC(=O)[C@H](Cc1ccccc1)NC(=O)[C@@H]1CCCN1C(=O)[C@H](Cc1c[nH]c2ccccc12)NC(=O)[C@H](Cc1c[nH]c2ccccc12)NC(=O)[C@H](Cc1c[nH]c2ccccc12)NC(=O)[C@@H]1CCCN1C(=O)[C@H](Cc1ccccc1)NC(=O)[C@@H](NC(=O)[C@H](CCCCN)NC(=O)[C@@H](NC(=O)[C@H](CCCCN)NC(=O)[C@@H](NC(=O)[C@@H](N)CCCCN)[C@@H](C)CC)[C@@H](C)CC)[C@@H](C)CC)[C@@H](C)CC)[C@@H](C)CC)C(=O)N[C@@H](CCCCN)C(N)=O (H-KIKIKIFPWWWPFIKIKIK-NH2) | 7.28 | 64 (≈ 161 µg/mL) | 64 (≈ 161 µg/mL) | 128 (≈ 322 µg/mL) | 128 (≈ 322 µg/mL) | 128 (≈ 322 µg/mL) | 128 (≈ 322 µg/mL) | 128 (≈ 322 µg/mL) | 128 (≈ 322 µg/mL)
9 | CC[C@H](C)[C@H](NC(=O)[C@H](CCCCN)NC(=O)[C@@H](NC(=O)[C@H](CCCCN)NC(=O)[C@@H](NC(=O)[C@@H]1CCCN1C(=O)[C@H](Cc1c[nH]c2ccccc12)NC(=O)[C@H](Cc1c[nH]c2ccccc12)NC(=O)[C@H](Cc1c[nH]c2ccccc12)NC(=O)[C@@H]1CCCN1C(=O)[C@@H](NC(=O)[C@H](CCCCN)NC(=O)[C@@H](NC(=O)[C@H](CCCCN)NC(=O)[C@@H](NC(=O)[C@@H](N)CCCCN)[C@@H](C)CC)[C@@H](C)CC)[C@@H](C)CC)[C@@H](C)CC)[C@@H](C)CC)C(=O)N[C@@H](CCCCN)C(N)=O (H-KIKIKIPWWWPIKIKIK-NH2) | 33.38 | 16 (≈ 35.5 µg/mL) | 8 (≈ 17.7 µg/mL) | 8 (≈ 17.7 µg/mL) | 16 (≈ 35.5 µg/mL) | 16 (≈ 35.5 µg/mL) | 4 (≈ 8.87 µg/mL) | 8 (≈ 17.7 µg/mL) | 64 (≈ 142 µg/mL)
10 | CC[C@H](C)[C@H](NC(=O)[C@H](CCCCN)NC(=O)[C@@H](NC(=O)[C@@H]1CCCN1C(=O)[C@H](Cc1c[nH]c2ccccc12)NC(=O)[C@H](Cc1c[nH]c2ccccc12)NC(=O)[C@H](Cc1c[nH]c2ccccc12)NC(=O)[C@@H]1CCCN1C(=O)[C@@H](NC(=O)[C@H](CCCCN)NC(=O)[C@@H](NC(=O)[C@@H](N)CCCCN)[C@@H](C)CC)[C@@H](C)CC)[C@@H](C)CC)C(=O)N[C@@H](CCCCN)C(N)=O (H-KIKIPWWWPIKIK-NH2) | > 256 | 32 (≈ 55.5 µg/mL) | 8 (≈ 13.9 µg/mL) | 16 (≈ 27.8 µg/mL) | 8 (≈ 13.9 µg/mL) | 8 (≈ 13.9 µg/mL) | 4 (≈ 6.94 µg/mL) | 4 (≈ 6.94 µg/mL) | 16 (≈ 27.8 µg/mL)
11 | CC(C)CCCCC(=O)N[C@@H](CCN)C(=O)N[C@H](C(=O)N[C@@H](CCN)C(=O)N[C@H]1CCNC(=O)[C@H]([C@@H](C)O)NC(=O)[C@H](CCN)NC(=O)[C@H](CCN)NC(=O)[C@H](CC(C)C)NC(=O)[C@@H](Cc2ccccc2)NC(=O)[C@H](CCN)NC1=O)[C@@H](C)O.CC[C@H](C)CCCCC(=O)N[C@@H](CCN)C(=O)N[C@H](C(=O)N[C@@H](CCN)C(=O)N[C@H]1CCNC(=O)[C@H]([C@@H](C)O)NC(=O)[C@H](CCN)NC(=O)[C@H](CCN)NC(=O)[C@H](CC(C)C)NC(=O)[C@@H](Cc2ccccc2)NC(=O)[C@H](CCN)NC1=O)[C@@H](C)O (X1-[Dab]T[Dab][Dab][Dab][dF]L[Dab][Dab]T; lactam 4-C) | – | 2 | 128 | 16 | 2 | 2 | 16 | 16 | 2
